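Tested at 5 concentrations; 48 h exposure; 96-well plates; endpoints linearly interpolated, else capped at highest concentration. At the GI50, growth is halved.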 The source made the active and inactive calls. No stated cut-off is given here; in the data, active = GI50 up to about 1.1 µM and inactive = higher.
Legend:
Assay in all cases: growth of human tumour cells (NCI), 48 h
OVCAR-3 = system: OVCAR-3
LOX IMVI = system: LOX IMVI
MOLT-4 = system: MOLT-4
CCRF-CEM = system: CCRF-CEM
SK-MEL-5 = system: SK-MEL-5
NCI-H522 = system: NCI-H522
NCI-H460 = system: NCI-H460
MDA-N = system: MDA-N
MDA-MB-231 = system: MDA-MB-231
A498 = system: A498
K562 = system: K562
UACC-62 = system: UACC-62
MDA-MB-435 = system: MDA-MB-435
HCT-15 = system: HCT-15
OVCAR-5 = system: OVCAR-5
Malme-3M = system: Malme-3M
OVCAR-4 = system: OVCAR-4
HOP-62 = system: HOP-62
HOP-92 = system: HOP-92
HCT-116 = system: HCT-116
PC-3 = system: PC-3
SF-539 = system: SF-539
COLO 205 = system: COLO 205
RPMI-8226 = system: RPMI-8226
OVCAR-8 = system: OVCAR-8
SF-268 = system: SF-268
NCI-H226 = system: NCI-H226
BT-549 = system: BT-549
T47D = system: T47D
CAKI-1 = system: CAKI-1
RXF 393 = system: RXF 393
M14 = system: M14
EKVX = system: EKVX
SR = system: SR
HCC 2998 = system: HCC 2998
IGROV-1 = system: IGROV-1
KM12 = system: KM12
U-251 = system: U-251
Hs-578T = system: Hs-578T
HT-29 = system: HT-29
HL-60 = system: HL-60
SK-MEL-2 = system: SK-MEL-2
MCF7 = system: MCF7
SK-OV-3 = system: SK-OV-3
SF-295 = system: SF-295
ACHN = system: ACHN
UACC-257 = system: UACC-257
A549 = system: A549
DU-145 = system: DU-145
TK-10 = system: TK-10
SNB-75 = system: SNB-75
UO-31 = system: UO-31
786-0 = system: 786-0
SK-MEL-28 = system: SK-MEL-28
NCI-H23 = system: NCI-H23
SN12C = system: SN12C
SW-620 = system: SW-620
NCI/ADR-RES = system: NCI/ADR-RES
SNB-19 = system: SNB-19

Measured: GI50

O=C(c1c(F)c(F)c(F)c(F)c1F)c1c(F)c(F)c(F)c(F)c1F
inactive: SK-MEL-5 2820 nM | NCI-H460 2250 nM | MDA-N 1430 nM | MDA-MB-231 1850 nM | A498 3060 nM | UACC-62 1920 nM | MDA-MB-435 1560 nM | OVCAR-5 1900 nM | Malme-3M 1520 nM | OVCAR-4 1750 nM | HOP-62 1810 nM | HOP-92 1830 nM | HCT-116 1510 nM | PC-3 1620 nM | COLO 205 1450 nM | OVCAR-8 1500 nM | SF-268 2550 nM | NCI-H226 3510 nM | BT-549 2460 nM | T47D 1690 nM | RXF 393 1550 nM | M14 2100 nM | EKVX 1960 nM | HCC 2998 1670 nM | IGROV-1 1300 nM | Hs-578T 2690 nM | HT-29 1320 nM | SK-MEL-2 2240 nM | SK-OV-3 2390 nM | SF-295 2550 nM | ACHN 1700 nM | UACC-257 1840 nM | A549 3530 nM | DU-145 1960 nM | TK-10 1190 nM | SNB-75 1980 nM | UO-31 1230 nM | SK-MEL-28 2880 nM | NCI-H23 2480 nM | SN12C 1870 nM | NCI/ADR-RES 3130 nM | SNB-19 4060 nM
1550 nM: HCT-15
active: OVCAR-3 979 nM | LOX IMVI 710 nM | MOLT-4 171 nM | CCRF-CEM 55.3 nM | NCI-H522 182 nM | K562 316 nM | SF-539 1090 nM | RPMI-8226 52.8 nM | CAKI-1 914 nM | SR 174 nM | KM12 535 nM | U-251 951 nM | HL-60 480 nM | MCF7 299 nM | 786-0 476 nM | SW-620 1060 nM

COc1cc(C2c3cc4c(cc3OC(N3CCNCC3)C2C)OCO4)cc(OC)c1OC (stereo not drawn)
inactive: MOLT-4 1160 nM | OVCAR-5 5130 nM | OVCAR-4 1660 nM | HOP-62 1130 nM | OVCAR-8 2930 nM | NCI-H226 1830 nM | EKVX 6380 nM | HCC 2998 2260 nM | IGROV-1 1170 nM | ACHN 1750 nM | UACC-257 3750 nM | A549 1790 nM | TK-10 20700 nM | UO-31 1690 nM | SK-MEL-28 2850 nM | SN12C 2590 nM
active: OVCAR-3 204 nM | LOX IMVI 871 nM | CCRF-CEM 538 nM | SK-MEL-5 380 nM | NCI-H522 861 nM | NCI-H460 940 nM | MDA-N 253 nM | MDA-MB-231 403 nM | A498 726 nM | K562 413 nM | UACC-62 516 nM | MDA-MB-435 269 nM | Malme-3M 294 nM | HOP-92 748 nM | HCT-116 560 nM | PC-3 456 nM | SF-539 344 nM | COLO 205 416 nM | RPMI-8226 804 nM | SF-268 836 nM | BT-549 579 nM | T47D 979 nM | CAKI-1 476 nM | RXF 393 300 nM | M14 873 nM | SR 441 nM | KM12 441 nM | U-251 675 nM | Hs-578T 170 nM | HT-29 387 nM | HL-60 288 nM | SK-MEL-2 1000 nM | MCF7 385 nM | SK-OV-3 476 nM | SF-295 234 nM | DU-145 594 nM | SNB-75 262 nM | 786-0 746 nM | NCI-H23 1090 nM | SW-620 445 nM | NCI/ADR-RES 597 nM | SNB-19 912 nM
893 nM: HCT-15
